This note sets out measurements from paper PMC8494430, “Development of a fluorogenic ADAMTS-7 substrate” (Journal of Enzyme Inhibition and Medicinal Chemistry, 2021).

Each structure is given as a SMILES string.

The target of assay [1] is T1, ADAMTS-7 (Homo sapiens, UniProt Q9UKP4).
T1 construct: the recombinant construct ADAMTS7-T8, which lacks the C-terminal PLAC domain; made in house
T1 sequence (Q9UKP4 237-1631 limits assumed): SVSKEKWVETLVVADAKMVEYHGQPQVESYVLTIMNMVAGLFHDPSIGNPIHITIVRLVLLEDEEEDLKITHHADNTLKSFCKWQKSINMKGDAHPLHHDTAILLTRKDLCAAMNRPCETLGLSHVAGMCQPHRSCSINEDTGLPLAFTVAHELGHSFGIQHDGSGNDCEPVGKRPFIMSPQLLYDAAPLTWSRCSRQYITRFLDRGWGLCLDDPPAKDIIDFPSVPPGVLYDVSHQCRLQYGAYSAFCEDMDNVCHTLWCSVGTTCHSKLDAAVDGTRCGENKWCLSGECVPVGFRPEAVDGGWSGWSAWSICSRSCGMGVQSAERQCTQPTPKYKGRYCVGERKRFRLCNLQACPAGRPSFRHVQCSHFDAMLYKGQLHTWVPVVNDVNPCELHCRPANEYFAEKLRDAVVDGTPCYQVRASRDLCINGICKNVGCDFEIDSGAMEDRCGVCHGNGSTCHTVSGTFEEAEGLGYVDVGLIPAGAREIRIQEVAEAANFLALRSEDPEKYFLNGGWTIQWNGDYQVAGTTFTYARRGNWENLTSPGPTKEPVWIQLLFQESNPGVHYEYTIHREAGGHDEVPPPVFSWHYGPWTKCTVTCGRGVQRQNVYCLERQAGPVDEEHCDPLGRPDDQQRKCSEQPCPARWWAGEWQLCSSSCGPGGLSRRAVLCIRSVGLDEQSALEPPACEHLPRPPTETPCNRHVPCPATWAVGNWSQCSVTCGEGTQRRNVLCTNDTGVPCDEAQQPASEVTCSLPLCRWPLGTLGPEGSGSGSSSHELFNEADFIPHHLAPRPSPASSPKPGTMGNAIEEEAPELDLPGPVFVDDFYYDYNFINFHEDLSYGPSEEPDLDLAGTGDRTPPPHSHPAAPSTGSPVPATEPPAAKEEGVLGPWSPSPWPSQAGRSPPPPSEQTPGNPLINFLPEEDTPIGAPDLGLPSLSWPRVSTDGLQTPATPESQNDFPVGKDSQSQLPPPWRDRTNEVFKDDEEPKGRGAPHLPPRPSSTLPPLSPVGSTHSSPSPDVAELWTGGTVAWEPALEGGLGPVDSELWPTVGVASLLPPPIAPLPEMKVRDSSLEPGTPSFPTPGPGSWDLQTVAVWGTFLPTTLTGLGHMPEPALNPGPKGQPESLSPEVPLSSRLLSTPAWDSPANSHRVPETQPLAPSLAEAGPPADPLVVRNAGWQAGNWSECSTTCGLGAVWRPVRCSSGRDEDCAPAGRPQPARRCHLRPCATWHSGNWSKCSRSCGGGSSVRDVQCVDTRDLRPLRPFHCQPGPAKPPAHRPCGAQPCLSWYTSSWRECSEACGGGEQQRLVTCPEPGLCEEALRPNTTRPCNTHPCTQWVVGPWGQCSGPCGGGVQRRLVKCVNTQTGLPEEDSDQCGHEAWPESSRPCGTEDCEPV
Briefly: Inhibition of ADAMTS-7 cleavage of FRET substrate ATS7FP7. Type of assay: biochemical. The method, then:
All enzyme assays were conducted in TNC-B buffer (50 mM Tris- HCl, pH 7.5, 150 mM NaCl, 10 mM CaCl2, and 0.02% NaN3) at 37 °C in 384 well plates (Cat. No: 784900, Greiner Bio-One, Austria). To avoid the formation of inhibitor or peptide aggregates, the detergent Brij-35 (0.05%) was added to TNC-B[13]. For inhibition studies, stock solutions of chemical compounds were prepared in dimethyl sulfoxide (DMSO) (10 mM). […] Blank samples were prepared using buffer only and the rate of cleavage for blank reactions was subtracted from the rates measured in the presence of enzyme. Upon addition of the indicated ADAMTS-7 FRET substrates (40 µM), the fluorescence was measured immediately using a FLUOstar Omega microplate reader (BMG Labtech, Germany) with an excitation filter wavelength of 485 nm and an emission filter wavelength of 520 nm.

Assay [2] has as its target T1, ADAMTS-7. Briefly: LTBP4S-A cleavage assay (SDS-PAGE, densitometry). Format: biochemical. The procedure: LTBP4S-A cleavage assays were performed as before[8] with small modifications. Here, ADAMTS-7 –T8 (19 nM) was pre-incubated either in the absence or presence of the indicated inhibitors for 2 h at 37 °C before addition of […] (5.6 µM). After 17 h, proteolysis was stopped by addition of Bolt^TM LDS Sample Buffer, 5% β-mercaptoethanol, and heating to 95 °C. Samples were frozen at […] before use. For SDS-PAGE analysis, 12% Bis-Tris Plus Gels (ThermoFisher) were used and stained for 6 h with Imperial protein stain (ThermoFisher). Gels were destained overnight in pure water at room temperature on an orbital shaker and scanned for analysis of LTBP4S-A cleavage bands. To accurately determine cleavage inhibition from each inhibitor, inhibition was quantified by densitometry of the bands corresponding to cleavage products using ImageJ software. The data were plotted using GraphPad Prism 7.0.

One may read the IC50 as the concentration that gives 50% inhibition. Regarding `O=C(NCCC[C@@H](NS(=O)(=O)c1ccc(OCc2ccc(F)cc2Cl)cc1)C(=O)NO)c1ccccc1` [EDV33], the concentration for half-maximal inhibition (IC50) came to 330 ± 70 nM against ADAMTS-7 [1] (ATS7FP7 40 μM, 1 h preincubation, 37 °C) and 112 ± 14 nM on ADAMTS-7 [2] (ADAMTS-7 19 nM, 2 h preincubation, LTBP4S-A 5.6 μM, 17 h, read-out: IC50 (LTBP4S-A substrate)). The figures for the “increase of ADAMTS-7 inhibition relative to JG23” value at ADAMTS-7 [1] (against ATS7FP7) and on ADAMTS-7 [2] (against LTBP4S-A) were “approximately 2 fold” and 5.1 fold, respectively. The Ki on ADAMTS-7 [1] (read-out: Ki app (ATS7FP7 substrate)) was 68 ± 14 nM.
